Experimental data published in PubChem BioAssay (NCI).
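All cell lines were grown in 96-well plates and treated with compound for 48 hours. TGI marks complete inhibition of growth.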

What was measured:
Assay in all cases: inhibition of tumour cell growth, NCI panel, 48 h
OVCAR-3 ovarian = tested on: OVCAR-3 ovarian
SNB-75 CNS = tested on: SNB-75 CNS
A549 NSCLC = tested on: A549 NSCLC
HCC-2998 colon = tested on: HCC-2998 colon
LOX IMVI melanoma = tested on: LOX IMVI melanoma
HOP-18 NSCLC = tested on: HOP-18 NSCLC
LXFL 529 NSCLC = tested on: LXFL 529 NSCLC
KM20L2 colon = tested on: KM20L2 colon
SNB-19 CNS = tested on: SNB-19 CNS
HOP-92 NSCLC = tested on: HOP-92 NSCLC
CAKI-1 renal = tested on: CAKI-1 renal
A498 renal = tested on: A498 renal
RPMI-8226 leukemia = tested on: RPMI-8226 leukemia
U251 CNS = tested on: U251 CNS
NCI-H522 lung = tested on: NCI-H522 lung
IGROV1 ovarian = tested on: IGROV1 ovarian
RXF 393 renal = tested on: RXF 393 renal
SF-539 CNS = tested on: SF-539 CNS
NCI-H226 lung = tested on: NCI-H226 lung
NCI-H460 lung = tested on: NCI-H460 lung
SR leukemia = tested on: SR leukemia
XF 498 CNS = tested on: XF 498 CNS
K-562 leukemia = tested on: K-562 leukemia
KM12 colon = tested on: KM12 colon
SK-MEL-2 melanoma = tested on: SK-MEL-2 melanoma
SN12C renal = tested on: SN12C renal
SK-MEL-28 melanoma = tested on: SK-MEL-28 melanoma
MALME-3M melanoma = tested on: MALME-3M melanoma
DMS 273 small cell lung = tested on: DMS 273 small cell lung
ACHN renal = tested on: ACHN renal
OVCAR-5 ovarian = tested on: OVCAR-5 ovarian
HCT-116 colon = tested on: HCT-116 colon
EKVX NSCLC = tested on: EKVX NSCLC
HOP-62 NSCLC = tested on: HOP-62 NSCLC
OVCAR-8 ovarian = tested on: OVCAR-8 ovarian
HCT-15 colon = tested on: HCT-15 colon
COLO 205 colon = tested on: COLO 205 colon
DLD-1 colon = tested on: DLD-1 colon
SF-268 CNS = tested on: SF-268 CNS
TK-10 renal = tested on: TK-10 renal
UO-31 renal = tested on: UO-31 renal
786-0 renal = tested on: 786-0 renal
RXF-631 renal = tested on: RXF-631 renal
OVCAR-4 ovarian = tested on: OVCAR-4 ovarian
HT29 colon = tested on: HT29 colon
CCRF-CEM leukemia = tested on: CCRF-CEM leukemia
SK-MEL-5 melanoma = tested on: SK-MEL-5 melanoma
NCI-H23 lung = tested on: NCI-H23 lung
SF-295 CNS = tested on: SF-295 CNS
SK-OV-3 ovarian = tested on: SK-OV-3 ovarian
SNB-78 CNS = tested on: SNB-78 CNS
MOLT-4 leukemia = tested on: MOLT-4 leukemia
M14 melanoma = tested on: M14 melanoma
HL-60(TB) leukemia = tested on: HL-60(TB) leukemia
DMS 114 small cell lung = tested on: DMS 114 small cell lung
UACC-62 melanoma = tested on: UACC-62 melanoma
UACC-257 melanoma = tested on: UACC-257 melanoma

Measured: TGI

COC(=O)C(=O)C(C(=O)C=C(C)C)C(=O)C(=O)Nc1cc(C(F)(F)F)ccc1Cl (configuration not stated)
> 100 µM: OVCAR-3 ovarian | SNB-75 CNS | A549 NSCLC | HCC-2998 colon | LOX IMVI melanoma | HOP-18 NSCLC | LXFL 529 NSCLC | KM20L2 colon | SNB-19 CNS | HOP-92 NSCLC | CAKI-1 renal | A498 renal | U251 CNS | NCI-H522 lung | IGROV1 ovarian | RXF 393 renal | SF-539 CNS | NCI-H226 lung | NCI-H460 lung | XF 498 CNS | K-562 leukemia | KM12 colon | SK-MEL-2 melanoma | SN12C renal | SK-MEL-28 melanoma | MALME-3M melanoma | DMS 273 small cell lung | ACHN renal | OVCAR-5 ovarian | HCT-116 colon | EKVX NSCLC | HOP-62 NSCLC | OVCAR-8 ovarian | HCT-15 colon | COLO 205 colon | DLD-1 colon | SF-268 CNS | TK-10 renal | UO-31 renal | 786-0 renal | RXF-631 renal | OVCAR-4 ovarian | HT29 colon | SK-MEL-5 melanoma | NCI-H23 lung | SF-295 CNS | SK-OV-3 ovarian | SNB-78 CNS | MOLT-4 leukemia | M14 melanoma | HL-60(TB) leukemia | DMS 114 small cell lung | UACC-62 melanoma | UACC-257 melanoma
67 µM: RPMI-8226 leukemia
39.9 µM: SR leukemia
71.2 µM: CCRF-CEM leukemia
